Source: patent US20190184064A1, “Composition for Soft Tissue Augmentation Providing Protection from Infection” (priority 2015, published 2019)

Experiments:
[1] = tested on: Pseudomonas aeruginosa (PAO1); assay: Solution exposure of antimicrobial hyaluronic acid hydrogels to living cultures (PAO1); format: cell-based; conditions: 20 μl early phase culture in 980 μl formulation
Procedure: (§1) By way of Examples, the following evaluations were done to assess the performance of the antimicrobial hyaluronic acid gels. Solution exposure of the antimicrobial hyaluronic acid hydrogels immersed in early phase concentrations of 2 test microorganisms were conducted. Additionally, the physical properties of the hydrogels were assessed to determine their shear/thixotropic properties.
(§2) In this study, two strains of bacteria, namely Pseudomonas aeruginosa (PAO1) and Stapylococcus aureus (SA 113) were evaluated for total kill of each of the strains after 4 and 24 hours of exposure to the taurolidine-HA formulation. 20 μl of early phase culture of each strain was placed in 980 μl of each Hyaluronic Acid formulation. Samples of remaining bacteria concentrations were determined for the samples after 4 and 24 hours of exposure. Two controls (with and without HA), and HA gels with 3 different drug concentrations were evaluated. They were also evaluated against a known antimicrobial, gentamicin.

[2] = tested on: Stapylococcus aureus (SA 113); assay: Solution exposure of antimicrobial hyaluronic acid hydrogels to living cultures (SA 113); format: cell-based; conditions: 20 μl early phase culture in 980 μl formulation
Procedure: as §1, §2

gentamicin
PA01 (4 hr) remaining bacteria concentration ([1]; 4 hours of exposure): 0.00E+00
PA01 (24 hr) remaining bacteria concentration ([1]; 24 hours of exposure): 0.00E+00
SA113 (4 hr) remaining bacteria concentration ([2]; 4 hours of exposure): 3.77E+02
SA113 (24 hr) remaining bacteria concentration ([2]; 24 hours of exposure): 8.33E+00
